Several values for one entry are separate records, joined by “and”; a condition that tells them apart may be missing. Equal entries are not always repeated. Where two headings read alike, the source gives them in different places.
Columns and labels:
[1] = test system: Ptch1 in C3Hs; test: Down-regulation of Ptch1 in C3H10T1/2 cells; type: cell-based, mouse
From the text: For this assay, the wild-type and D477G Smo constructs will be transiently transfected into C3H10T1/2 cells and inhibition of pathway signaling assessed as previously described.

[2] = test system: Hh-dependent MB; details: oral administration; cited from earlier work
[3] = test system: hedgehog (Hh) signaling pathway; details: background; cited from earlier work
[4] = test system: Gli1 in M2s; test: Down-regulation of Gli1 in M2s; type: cell-based
From the text: (§1) Additional analogues have been synthesized and characterized in the assays described above.

[5] = test system: Hh signaling (Gli1 mRNA) in C3H10T1/2 cells; test: Down-regulation of endogenous Gli1 mRNA in Hh-dependent C3H10T1/2 cells; type: cell-based, mouse; details: Mus musculus
Procedure, shortened: (§2)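 Hh pathway activated in C3H10T1/2 cells with exogenous agonist (recombinant Hh ligand or small molecule) alongside inhibitor; Gli1 mRNA measured by qPCR. Concentration-dependent Gli1 reduction also assessed in murine BCC ASZ cells; values mean±SEM, ≥2 experiments in triplicate.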

[6] = test system: Hh signaling (Gli1 mRNA) in ASZ cells; test: Down-regulation of endogenous Gli1 mRNA in ASZ cells; type: cell-based, murine; details: Mus musculus
Procedure, shortened: as §2

[7] = test system: Gli1 in DAOYs (cultured MB); test: Down-regulation of Gli1 in DAOY cells; type: cell-based; details: Homo sapiens
From the text: as §1

[8] = test system: HUVEC; test: HUVEC proliferation (MTS); type: cell-based, human; details: Homo sapiens, HUVEC
Procedure, shortened: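 HUVECs seeded at 3,000 cells/well, attached overnight, then treated with varying drug concentrations. Proliferation read by MTS/PMS after 72 h.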

[9] = test system: Hh signaling (Gli1 mRNA) in MERP MB cells; test: Down-regulation of Gli1 mRNA in MERP MB cells; type: cell-based, mice; details: Mus musculus; 48 hr incubation
Experimental: General Information. Protocols for general cell culture, qPCR and Hh inhibition in C3H10T1/2 and ASZ cells are as previously described.^28 Protocols for the initiation and growth of Math1-Cre-ER; Ptc^fl/fl medulloblastoma tumors, isolation and in vitro culture of MERP MB cells, as wells as the anti-proliferation and qPCR studies performed in these cells were as previously described.^a Sonic Hedgehog (C25II) recombinant mouse protein was purchased from Life Technologies. aData was analyzed using GraphPad Prism 5 and reported values represent mean±SEM for at least two separate experiments performed in triplicate.

[10] = test system: tube formation in HUVECs; test: HUVEC tube formation on Matrigel; type: cell-based, human
From the text: In vivo angiogenesis is dependent on endothelial cell proliferation; therefore, the inhibition of HUVEC proliferation is commonly utilized as an early stage in vitro model of anti-angiogenic activity. […] Under normal conditions, HUVECs plated and grown on Matrigel migrate towards each other, align, and form tubes that resemble in vivo capillary beds. This assay is generally considered a more robust model of angiogenesis as it requires several aspects of proper vessel formation, including adhesion, migration, and tube formation.
Tube Formation Assay. Matrigel (BD Biosciences) is diluted with DMEM to 3 mg/ml and used to coat the wells of a 24-well tissue culture dish. Plates are incubated at room temperature for 30 min until the matrigel solidifies. HUVECs are suspended in M199 media with 1% FBS and penicillin/streptomycin and 40,000 cells are added to each well. Plates are incubated at 37° C. for 1 h to allow HUVECs to attach to the matrigel. […] Phase contrast images of each well (3/well) are taken on an inverted microscope and quantified using Image J software (NIH).
Tube Formation Assay. Matrigel (BD Biosciences) was diluted 1:1 with DMEM (matrigel protein concentration no less than 3 mg/ml) and used to coat the wells of a 24-well tissue culture dish (280 uL per well). Plates were incubated at 37° C. for no more than 1 h until the matrigel solidified. HUVECs were suspended in M199 media with 1% FBS and penicillin/streptomycin and 50,000 cells were added to each well. Plates were incubated at 37° C. for 20-30 min to allow HUVECs to attach to the matrigel. Cells were treated with control (DMSO), known angiogenic inhibitor suramin (10 uM), or varying doses (10, 1, 0.1 μM) of drug and incubated for 16 h. Phase contrast images were taken from multiple locations in each well (8/well) on an inverted microscope and tube formation parameters quantified using Image J software (NIH).

[11] = C3H 10T1/2, read-out: Hh inhibition

CCC(C)n1ncn(-c2ccc(N3CCN(c4ccc(OCC5COC(Cn6cncn6)(c6ccc(Cl)cc6Cl)O5)cc4)CC3)cc2)c1=O (centres unmarked) [ITZ, itraconazole, reference compound]
IC50 [1]: 0.33 µM
IC50 ([1]; Mus musculus, C3H 10T1/2): 0.2 µM
survival [2]: increased survival
IC50 [3]: 0.69 µM
IC50 [4]: 0.3 µM and 0.52 µM
IC50 ([5]; C3H 10T1/2, 24 h, read-out: IC50 (μM) C3H10T1/2, 24 hr incubation): 0.074 µM
inhibition at 1 µM ([5]; C3H 10T1/2, read-out: % Hh inhibition): 96%
inhibition at 0.5 µM [5, 11]: ~70%
inhibition at 1 µM [5, 11]: ~98%
IC50 ([5]; C3H 10T1/2, read-out: Hh pathway inhibition C3H10T1/2, down-regulation of endogenous Gli1 mRNA): 0.074 ± 0.02 µM
IC50 ([5]; C3H 10T1/2, read-out: IC50 (μM) Gli1-C3Hs): 0.07 ± 0.02 µM
IC50 ([5]; C3H 10T1/2, read-out: IC50 down-regulation of Gli1, C3H10T1/2 cells): 0.074 µM
IC50 ([6]; 48 h, read-out: IC50 (μM) ASZ, 48 hr incubation): 0.14 ± 0.02 µM
IC50 ([6]; read-out: Hh pathway inhibition ASZ, down-regulation of endogenous Gli1 mRNA): 0.14 ± 0.02 µM
IC50 ([6]; read-out: IC50 (μM) Gli1-ASZs): 0.14 ± 0.02 µM
IC50 [7]: 0.6 ± 0.08 µM
GI50 ([8]; 72 h, read-out: GI50 (μM) HUVEC, 72 h): 0.4 ± 0.03 µM
GI50 ([8]; read-out: GI50 HUVEC proliferation): 0.45 µM
IC50 ([8]; read-out: HUVEC Anti-proliferation): 0.45 ± 0.14 µM
IC50 [9]: 0.39 ± 0.06 µM
inhibition of tube formation ([10]; 1 μM, 16 h): significant inhibition
inhibition of tube formation (overall tube length and total tube junctions) ([10]; 10 μM, 16 h): comparable to that of the positive control suramin
inhibition of tube formation ([10]; 0.1 and 1 μM, 24 hour): significantly inhibited tube formation

From patent publication US9650365B2 (UNIVERSITY OF CONNECTICUT, priority 2014, dated 2017)
